The values that follow come from patent US20240409585A1, “MACROCYCLIC IMMUNOMODULATORS” (priority 2021, published 2024).

The assay addresses T1, PE-labeled human PD-L1-Ig binding to Jurkat cell line over-expressing human PD-1 (Jurkat-PD-1) (Homo sapiens, UniProt Q15116).
T1 construct: expressed in transfected cells; host or cells: Jurkat
The experiment in a line: Jurkat-PD-1 Cell Binding High-Content Screening Assay (CBA): Method 1. Conditions: Jurkat-hPD-1 cells, PE-labeled PD-L1-Ig 20 nM final; read-out: Jurkat HPDL1 PD1 IC50 (uM) (Method 1).

Numbered stars: 1 amine (or outer) side, 2 acyl side, 3 side chain; on linkers, the order of the positions; unused ones are H or OH. Bridge positions count the residues as written; N and C are the ends. Square brackets hold non-standard residues; d marks the D form. Peptide text beside a SMILES is read from it. * marks the point of attachment. ξ: configuration not given here. Bip(4'-COOH) = N[C@@H](Cc1ccc(-c2ccc(C(=O)O)cc2)cc1)C(=O)O; X29 = O=C([C@H](Cc1ccc(-c2cc(F)cc(F)c2)cc1)N[*:1])[*:2]; Bip = N[C@@H](Cc1ccc(-c2ccccc2)cc1)C(=O)O; Phe(3-CN) = N#Cc1cccc(C[C@H](N)C(=O)O)c1; Phe(3-Cl) = N[C@@H](Cc1cccc(Cl)c1)C(=O)O; Phe(3-Me) = Cc1cccc(C[C@H](N)C(=O)O)c1; Bta = N[C@@H](Cc1csc2ccccc12)C(=O)O; Lys(Me2) = CN(C)CCCC[C@H](N)C(=O)O; h4Pal = N[C@@H](CCc1ccncc1)C(=O)O; Cit = NC(=O)NCCC[C@H](N)C(=O)O; Ile(3ξ) = CCC(C)[C@H](N)C(=O)O; Thr(3ξ) = CC(O)[C@H](N)C(=O)O; Carboxymethyl = O=C(O)C*; NMeA = CN[C@@H](C)C(=O)O; Orn = NCCC[C@H](N)C(=O)O; Dab = NCC[C@H](N)C(=O)O; Dap = NC[C@H](N)C(=O)O; ξC = NC(CS)C(=O)O

T1 sequence (Q15116 25-288): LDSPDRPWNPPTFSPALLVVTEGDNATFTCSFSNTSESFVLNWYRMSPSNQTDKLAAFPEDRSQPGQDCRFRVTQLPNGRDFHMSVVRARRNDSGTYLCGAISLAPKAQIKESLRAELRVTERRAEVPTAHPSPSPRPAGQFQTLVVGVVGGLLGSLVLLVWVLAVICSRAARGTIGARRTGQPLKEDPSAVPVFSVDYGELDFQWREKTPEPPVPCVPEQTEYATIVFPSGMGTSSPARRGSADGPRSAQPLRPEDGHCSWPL

On to `CCC(C)[C@@H]1NC(=O)[C@H](Cc2ccc(-c3ccccc3)cc2)NC(=O)[C@H](Cc2cccc(C)c2)NC(=O)[C@H](Cc2c[nH]c3ccccc23)NC(=O)[C@H](CC(=O)O)NC(=O)[C@H](Cc2ccc(OCC(=O)O)cc2)NC(=O)[C@H](C(C)O)NC(=O)CSC[C@@H](C(=O)N[C@@H](CC(N)=O)C(=O)O)NC(=O)[C@H](CO)NC(=O)[C@H](C(C)C)NC(=O)[C@H](CC(C)C)NC(=O)[C@H](CCN)NC(=O)[C@@H](CC(C)C)NC(=O)[C@H](C)N(C)C1=O` (stereo partly drawn) [Compound 2222] ({CH2CO}-[Thr(3ξ)]Y(Carboxymethyl)DW[Phe(3-Me)][Bip][Ile(3ξ)][NMeA][dL][Dab]LVSCN-OH; thioether N-14), for which the IC50 was determined as 0.29 µM.
Under `CC(C)C[C@@H]1NC(=O)[C@H](CCCCN)NC(=O)[C@@H](CC(C)C)NC(=O)[C@H](C)N(C)C(=O)[C@H](Cc2cnc[nH]2)NC(=O)[C@H](Cc2ccc(-c3ccccc3)cc2)NC(=O)[C@H](C(C)C)NC(=O)[C@H](Cc2c[nH]c3ccccc23)NC(=O)[C@H](CC(=O)O)NC(=O)[C@H](Cc2ccc(O)cc2)NC(=O)[C@H](CC(N)=O)NC(=O)CSC[C@@H](C(=O)NCC(N)=O)NC(=O)[C@H](CO)NC(=O)[C@H](C(C)C)NC1=O` [Compound 1483] ({CH2CO}-NYDWV[Bip]H[NMeA][dL]KLVSCG-NH2; thioether N-14) stands 0.06 µM.
Under `CC(C)C[C@@H]1NC(=O)[C@H](CCCCN)NC(=O)[C@@H](CC(C)C)NC(=O)[C@H](C)N(C)C(=O)[C@H](C(C)C)NC(=O)[C@H](Cc2ccc(-c3ccccc3)cc2)NC(=O)[C@H](C(C)C)NC(=O)[C@H](Cc2c[nH]c3ccccc23)NC(=O)[C@H](CC(=O)O)NC(=O)[C@H](Cc2ccc(O)cc2)NC(=O)[C@H](CC(N)=O)NC(=O)CSC[C@@H](C(=O)N[C@@H](C)C(N)=O)NC(=O)[C@H]([C@@H](C)O)NC(=O)[C@H](C(C)C)NC1=O` [Compound 1299] ({CH2CO}-NYDWV[Bip]V[NMeA][dL]KLVTCA-NH2; thioether N-14) stands 0.02 µM.
For the molecule `CC(C)C[C@@H]1NC(=O)[C@H](CCN)NC(=O)[C@@H](CC(C)C)NC(=O)[C@H](C)N(C)C(=O)[C@H](C(C)C)NC(=O)[C@H](Cc2ccc(-c3ccccc3)cc2)NC(=O)[C@H](C(C)C)NC(=O)[C@H](Cc2c[nH]c3ccccc23)NC(=O)[C@H](CC(=O)O)NC(=O)[C@H](Cc2cccc(Cl)c2)NC(=O)[C@H](CN)NC(=O)CSC[C@@H](C(=O)N[C@@H](C)C(N)=O)NC(=O)[C@H]([C@@H](C)O)NC(=O)[C@H](C(C)C)NC1=O` [Compound 1441] ({CH2CO}-[Dap][Phe(3-Cl)]DWV[Bip]V[NMeA][dL][Dab]LVTCA-NH2; thioether N-14), the half-maximal inhibitory concentration (IC50) is 0.09 µM.
Under `CC(C)C[C@@H]1NC(=O)[C@H](CCCNC(=N)N)NC(=O)[C@@H](CC(C)C)NC(=O)[C@H](C)N(C)C(=O)[C@H](CCCNC(=N)N)NC(=O)[C@H](Cc2ccc(-c3ccccc3)cc2)NC(=O)[C@H](C(C)C)NC(=O)[C@H](Cc2cccc(C#N)c2)NC(=O)[C@H](CC(=O)O)NC(=O)[C@H](Cc2ccc(O)cc2)NC(=O)[C@H](CC(N)=O)NC(=O)CSC[C@@H](C(=O)N[C@@H](C)C(N)=O)NC(=O)[C@H]([C@@H](C)O)NC(=O)[C@H](C(C)C)NC1=O` [Compound 1196] ({CH2CO}-NYD[Phe(3-CN)]V[Bip]R[NMeA][dL]RLVTCA-NH2; thioether N-14) stands 0.24 µM; under `CC(C)C[C@@H]1NC(=O)[C@H](CCCN)NC(=O)[C@H](Cc2csc3ccccc23)NC(=O)[C@H](C)N(C)C(=O)[C@H](CCCNC(=N)N)NC(=O)[C@H](Cc2ccc(-c3ccccc3)cc2)NC(=O)[C@H](C(C)C)NC(=O)[C@H](Cc2c[nH]c3ccccc23)NC(=O)[C@H](CC(=O)O)NC(=O)[C@H](Cc2ccc(O)cc2)NC(=O)[C@H](Cc2ccccc2)NC(=O)CSC[C@@H](C(=O)N[C@@H](C)C(N)=O)NC(=O)[C@H]([C@@H](C)O)NC(=O)[C@H](C(C)C)NC1=O` [Compound 1120] ({CH2CO}-FYDWV[Bip]R[NMeA][Bta][Orn]LVTCA-NH2; thioether N-14), 0.27 µM; under `CC(C)C[C@@H]1NC(=O)[C@H](CCCNC(=N)N)NC(=O)[C@@H](CC(C)C)NC(=O)[C@H](C)N(C)C(=O)[C@H](CCCNC(=N)N)NC(=O)[C@H](Cc2ccc(-c3cc(F)cc(F)c3)cc2)NC(=O)[C@H](C(C)C)NC(=O)[C@H](Cc2c[nH]c3ccccc23)NC(=O)[C@H](CC(=O)O)NC(=O)[C@H](Cc2ccc(O)cc2)NC(=O)[C@H](Cc2ccccc2)NC(=O)CSC[C@@H](C(=O)N[C@@H](C)C(N)=O)NC(=O)[C@H]([C@@H](C)O)NC(=O)[C@H](C(C)C)NC1=O` [Compound 1068] ({CH2CO}-FYDWV[X29]R[NMeA][dL]RLVTCA-NH2; thioether N-14), 0.17 µM.
On to `CC(C)C[C@@H]1NC(=O)[C@H](Cc2c[nH]c3ccccc23)NC(=O)[C@H](CC(=O)O)NC(=O)[C@H](Cc2ccc(OCC(=O)O)cc2)NC(=O)[C@H](Cc2ccc(-c3ccc(C(=O)O)cc3)cc2)NC(=O)CSC[C@@H](C(=O)N[C@@H](CC(N)=O)C(N)=O)NC(=O)[C@H](CO)NC(=O)[C@H](C(C)C)NC(=O)[C@H](CC(C)C)NC(=O)[C@H](CCN)NC(=O)[C@@H](CC(C)C)NC(=O)[C@H](C)N(C)C(=O)[C@H](Cc2cnc[nH]2)NC(=O)[C@H](Cc2ccc(-c3ccccc3)cc2)NC1=O` [Compound 2097] ({CH2CO}-[Bip(4'-COOH)]Y(Carboxymethyl)DWL[Bip]H[NMeA][dL][Dab]LVSCN-NH2; thioether N-14), for which the concentration for half-maximal inhibition (IC50) stood at 0.03 µM.
Under `Cc1cccc(C[C@@H]2NC(=O)[C@H](CC(=O)O)NC(=O)[C@H](CCc3ccncc3)NC(=O)[C@H](CN)NC(=O)CSC[C@@H](C(=O)N[C@@H](C)C(N)=O)NC(=O)[C@H]([C@@H](C)O)NC(=O)[C@H](C(C)C)NC(=O)[C@H](CC(C)C)NC(=O)[C@H](CCN)NC(=O)[C@@H](CC(C)C)NC(=O)[C@H](C)N(C)C(=O)[C@H](CCCNC(N)=O)NC(=O)[C@H](Cc3ccc(-c4ccccc4)cc3)NC(=O)[C@H](C(C)C)NC2=O)c1` [Compound 1547] ({CH2CO}-[Dap][h4Pal]D[Phe(3-Me)]V[Bip][Cit][NMeA][dL][Dab]LVTCA-NH2; thioether N-14) stands 0.01 µM; under `CC(C)C[C@@H]1NC(=O)[C@H](CCN)NC(=O)[C@@H](CC(C)C)NC(=O)[C@H](C)N(C)C(=O)[C@H](CCCNC(N)=O)NC(=O)[C@H](Cc2ccc(-c3ccccc3)cc2)NC(=O)[C@H](C(C)C)NC(=O)[C@H](Cc2c[nH]c3ccccc23)NC(=O)[C@H](CC(=O)O)NC(=O)[C@H](Cc2ccc(O)cc2)NC(=O)[C@H](Cc2ccc(OCC(=O)O)cc2)NC(=O)CSC[C@@H](C(=O)N[C@@H](C)C(N)=O)NC(=O)[C@H]([C@@H](C)O)NC(=O)[C@H](C(C)C)NC1=O` [Compound 1324] ({CH2CO}-Y(Carboxymethyl)YDWV[Bip][Cit][NMeA][dL][Dab]LVTCA-NH2; thioether N-14), 0.03 µM; under `CCC(C)[C@@H]1NC(=O)[C@H](Cc2ccc(-c3ccccc3)cc2)NC(=O)[C@H](C(C)C)NC(=O)[C@H](Cc2cccc(C)c2)NC(=O)[C@H](CC(=O)O)NC(=O)[C@H](Cc2ccc(OCC(=O)O)cc2)NC(=O)[C@H](CCCCN(C)C)NC(=O)CSCC(C(=O)NCC(N)=O)NC(=O)[C@H](CO)NC(=O)[C@H](C(C)C)NC(=O)[C@H](CC(C)C)NC(=O)[C@H](CC(N)=O)NC(=O)[C@@H](CC(C)C)NC(=O)[C@H](C)N(C)C1=O` (stereo partly drawn) [Compound 2063] ({CH2CO}-[Lys(Me2)]Y(Carboxymethyl)D[Phe(3-Me)]V[Bip][Ile(3ξ)][NMeA][dL]NLVS[ξC]G-NH2; thioether N-14), 0.05 µM.

A word on the IC50: it is the point on the concentration scale where inhibition reaches its midpoint.
